Measurements as given in US20260274892A1, “MACROCYCLIC BROAD SPECTRUM ANTIBIOTICS” (RQx Pharmaceuticals, Inc., priority 2017, published 2026).

Tests used:
[1] = system: Escherichia coli ATCC 25922; test: Minimum inhibitory concentration (MIC), CLSI broth micro-dilution, E. coli; assay type: cell-based; details: Escherichia coli, ATCC25922, 22 h, Table 6, cation adjusted Mueller Hinton Broth + 0.002% Tween-80, 35° C.
Procedure, shortened: (§1)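 Colonies grown 20 h at 35° C on Trypticase Soy agar (MRSA) or Luria agar (E. coli) were suspended in cation-adjusted Mueller Hinton broth with 0.002% Tween-80. Suspensions were added at OD600 0.0005 to 10-point twofold compound dilutions, then incubated 22 h at 35° C.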

[2] = system: Methicillin Resistant Staphylococcus aureus strain USA 200; test: Minimum inhibitory concentration (MIC), CLSI broth micro-dilution, S. aureus; assay type: cell-based; details: Staphylococcus aureus, MRSA / USA200; Table 6; MRSA USA 200; cation adjusted Mueller Hinton Broth + 0.002% Tween-80; 35° C., 22 hours
Procedure, shortened: as §1

Row | Structure (SMILES) | MIC [1] [µM] | MIC [2] [µM]
1 | CCCCCc1ccc(-c2ncc(C(=O)N[C@@H](CCN)C(=O)N(C)[C@@H]3C(=O)N[C@@H](C)C(=O)N[C@H](C(=O)NCC#N)Cc4ccc(O)c(c4)-c4cc3ccc4O)c(C)n2)cc1 (racemic) [Compound 432, rac-(8S,11S,14S)-N-(cyanomethyl)-3,18-dihydroxy-11-methyl-14-[methyl-[rac-(2S)-4-amino-2-[[4-methyl-2-(4-pentylphenyl)pyrimidine-5-carbonyl]amino]butanoyl]amino]-10,13-dioxo-9,12-diazatricyclo[13.3.1.12,6]icosa-1(18),2(20),3,5,15(19),16-hexaene-8-carboxamide] | 1.4 | 0.045
2 | Cc1nc(-c2ccc(OC3CCCCC3)cc2)nc(C)c1C(=O)N[C@@H](CCNS(C)(=O)=O)C(=O)N(C)[C@@H]1C(=O)N[C@@H](C)C(=O)N[C@H](C(=O)NCC#N)Cc2ccc(OCCN)c(c2)-c2cc1ccc2OCCN [Compound 497, (8S,11S,14S)-3,18-bis(2-aminoethoxy)-N-(cyanomethyl)-14-[[(2S)-2-[[2-[4-(cyclohexoxy)phenyl]-4,6-dimethyl-pyrimidine-5-carbonyl]amino]-4-(methanesulfonamido)butanoyl]-methyl-amino]-11-methyl-10,13-dioxo-9,12-diazatricyclo[13.3.1.12,6]icosa-1(18),2(20),3,5,15(19),16-hexaene-8-carboxamide] | 0.75 | 0.047
3 | CCCCCCOc1ccc(-c2ncc(C(=O)N[C@@H](CCN)C(=O)N(C)[C@@H]3C(=O)N[C@@H](C)C(=O)N[C@H](C(=O)NCC#N)Cc4ccc(OCCN)c(c4)-c4cc3ccc4OCCN)c(C)n2)cc1 (racemic) [Compound 248, rac-(8S,11S,14S)-3,18-bis(2-aminoethoxy)-N-(cyanomethyl)-11-methyl-14-[methyl-[rac-(2S)-4-amino-2-[[2-(4-hexoxyphenyl)-4-methyl-pyrimidine-5-carbonyl]amino]butanoyl]amino]-10,13-dioxo-9,12-diazatricyclo[13.3.1.12,6]icosa-1(18),2(20),3,5,15(19),16-hexaene-8-carboxamide] | 0.13 | 0.016
4 | Cc1nc(-c2ccc(C(C)(C)C)cc2)nc(C)c1C(=O)N[C@@H](CCN)C(=O)N(C)[C@@H]1C(=O)N[C@@H](C)C(=O)N[C@H](C(=O)NCC#N)Cc2ccc(OCCN)c(c2)-c2cc1ccc2OCCN (racemic) [Compound 253, rac-(8S,11S,14S)-3,18-bis(2-aminoethoxy)-N-(cyanomethyl)-11-methyl-14-[methyl-[rac-(2S)-4-amino-2-[[2-(4-tert-butylphenyl)-4,6-dimethyl-pyrimidine-5-carbonyl]amino]butanoyl]amino]-10,13-dioxo-9,12-diazatricyclo[13.3.1.12,6]icosa-1(18),2(20),3,5,15(19),16-hexaene-8-carboxamide] | 0.14 | 0.012
5 | Cc1cc(-c2ccc(OCC(C)(C)C)cc2)nc(C)c1C(=O)N[C@@H](CCN)C(=O)N(C)[C@@H]1C(=O)N[C@@H](C)C(=O)N[C@H](C(=O)NCC#N)Cc2ccc(OCCN)c(c2)-c2cc1ccc2OCCN (racemic) [Compound 359, rac-(8S,11S,14S)-3,18-bis(2-aminoethoxy)-N-(cyanomethyl)-11-methyl-14-[methyl-[rac-(2S)-4-amino-2-[[6-[4-(2,2-dimethylpropoxy)phenyl]-2,4-dimethyl-pyridine-3-carbonyl]amino]butanoyl]amino]-10,13-dioxo-9,12-diazatricyclo[13.3.1.12,6]icosa-1(18),2(20),3,5,15(19),16-hexaene-8-carboxamide] | 0.064 | 0.008
6 | Cc1nc(-c2ccc(C3CC3)cc2)nc(C)c1C(=O)N[C@@H](CCN)C(=O)N(C)[C@@H]1C(=O)N[C@@H](C)C(=O)N[C@H](C(=O)NCC#N)Cc2ccc(OCCN)c(c2)-c2cc1ccc2OCCN (racemic) [Compound 300, rac-(8S,11S,14S)-3,18-bis(2-aminoethoxy)-N-(cyanomethyl)-11-methyl-14-[methyl-[rac-(2S)-4-amino-2-[[2-(4-cyclopropylphenyl)-4,6-dimethyl-pyrimidine-5-carbonyl]amino]butanoyl]amino]-10,13-dioxo-9,12-diazatricyclo[13.3.1.12,6]icosa-1(18),2(20),3,5,15(19),16-hexaene-8-carboxamide] | 0.25 | 0.031
7 | CCCCCCCc1ccc(C(=O)N[C@@H](CCN)C(=O)N(C)[C@@H]2C(=O)N[C@@H](CC)C(=O)N[C@H](C(=O)NCC#N)Cc3ccc(OCCN)c(c3)-c3cc2ccc3OCCN)c(C)c1 (racemic) [Compound 479, rac-(8S,11S,14S)-3,18-bis(2-aminoethoxy)-N-(cyanomethyl)-11-ethyl-14-[methyl-[rac-(2S)-4-amino-2-[(4-heptyl-2-methyl-benzoyl)amino]butanoyl]amino]-10,13-dioxo-9,12-diazatricyclo[13.3.1.12,6]icosa-1(18),2(20),3,5,15(19),16-hexaene-8-carboxamide] | 0.77 | 0.027
8 | CCCCCCc1ccc(C(=O)N[C@@H](CCN)C(=O)N[C@@H]2C(=O)N[C@@H](C)C(=O)N[C@H](C(=O)NCC#N)Cc3ccc(O)c(c3)-c3cc2ccc3O)c(C)c1 (racemic) [Compound 471, rac-(8S,11S,14S)-N-(cyanomethyl)-3,18-dihydroxy-11-methyl-10,13-dioxo-14-[[rac-(2S)-4-amino-2-[(4-hexyl-2-methyl-benzoyl)amino]butanoyl]amino]-9,12-diazatricyclo[13.3.1.12,6]icosa-1(18),2(20),3,5,15(19),16-hexaene-8-carboxamide] | 5.1 | 0.04
9 | Cc1nc(-c2ccc(C(C)(C)C)cc2)nc(C)c1C(=O)N[C@H](CO)C(=O)N[C@@H](CCN)C(=O)N(C)[C@@H]1C(=O)N[C@@H](C)C(=O)N[C@H](C(=O)NCC#N)Cc2ccc(OCCN)c(c2)-c2cc1ccc2OCCN (racemic) [Compound 467, rac-(8S,11S,14S)-3,18-bis(2-aminoethoxy)-N-(cyanomethyl)-11-methyl-14-[methyl-[rac-(2S)-4-amino-2-[[rac-(2R)-2-[[2-(4-tert-butylphenyl)-4,6-dimethyl-pyrimidine-5-carbonyl]amino]-3-hydroxy-propanoyl]amino]butanoyl]amino]-10,13-dioxo-9,12-diazatricyclo[13.3.1.12,6]icosa-1(18),2(20),3,5,15(19),16-hexaene-8-carboxamide] | 8 | 0.19
10 | CCCCCc1ncc(-c2ccc(C(=O)N[C@@H](CCN)C(=O)N(C)[C@@H]3C(=O)N[C@@H](C)C(=O)N[C@H](C(=O)NCC#N)Cc4ccc(OCCN)c(c4)-c4cc3ccc4OCCN)c(C)n2)cn1 (racemic) [Compound 209, rac-(8S,11S,14S)-3,18-bis(2-aminoethoxy)-N-(cyanomethyl)-11-methyl-14-[methyl-[rac-(2S)-4-amino-2-[[2-methyl-6-(2-pentylpyrimidin-5-yl)pyridine-3-carbonyl]amino]butanoyl]amino]-10,13-dioxo-9,12-diazatricyclo[13.3.1.12,6]icosa-1(18),2(20),3,5,15(19),16-hexaene-8-carboxamide] | 2.1 | 0.26
